PubChem BioAssay AID1053121 (Broad Institute, 2014)
Where “and” joins values, the source holds several entries; their conditions need not be identical. Equal values may be shown once. Calls of active or inactive are those of the source.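 Rule for the calls: active = fitted curve reaches 40% activation below the top valid dose in every replicate test, signal rising; inconclusive = replicate tests disagree on the call; inactive = all replicate tests inactive, including opposite-direction effects.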

Columns and labels:
[1] = glycosylation-sensitive ERlucT reporter luminescence gain – D54 ERlucT glioma cells, dry powder, set 6, N-linked glycosylation inhibitor project, dose response (AID 1053121); details: D54 ERlucT glioma cells, NLG luciferase reporter gain-of-signal, 24 h; at 19.5 µM (top of the series)
[2] = tested on: D54 ERlucT glioma cells, NLG luciferase reporter gain-of-signal, 24 h; assay: as above

| Compound | activation (reporter increase) [1] | AC40 [2] |
| --- | --- | --- |
| C/C(=N\NC(=O)c1c([N+](=O)[O-])c(C)nn1C)c1ccc(NC(=O)C2CCCC2)cc1 | -76.5% (inactive) | – |
| CN(C)CCCN(Cc1cc2ccccc2[nH]c1=O)C(=O)NCc1ccccc1 | 0% (inactive) | – |
| Brc1ccc(CSc2nnc(-c3ccccc3)o2)cc1 | -58.8% (inactive) | – |
| Cc1cnc(NC(=O)c2cc(S(=O)(=O)N(C)C)ccc2N2CCCC2)s1 | – | 421 nM and 69.3 nM and 209 nM |
| Cc1cnc(NC(=O)c2cc(S(=O)(=O)N(C)C)ccc2N2CCC2)s1 | – | 364 nM |
| CCC1=Nc2cc(C(=O)NCCCOC)ccc2Sc2ccccc21 | – | 404 nM |
| CN(C)S(=O)(=O)c1ccc(N2CCCC2)c(C(=O)Nc2ccncc2)c1 | 16.1% (inactive) | – |
| Cc1cnc(NC(=O)c2cc(S(=O)(=O)N3CCCCC3)ccc2N2CCCC2)s1 | – | 7070 nM |
| Cc1ccccc1NC(=O)c1cc(S(=O)(=O)N(C)C)ccc1N1CCCC1 | 8.74% (inactive) | – |
| CCN(CC)CCOc1ccc2c(c1)C(=NNC(=O)c1ccccn1)c1cc(OCCN(CC)CC)ccc1-2 | – | 3070 nM |
| CN(C)C(=O)c1cc(S(=O)(=O)N(C)C)ccc1N1CCCC1 | 8.83% (inactive) | – |
| COc1ccc2c(COC(=O)c3cccc(S(=O)(=O)NCC(C)C)c3)cc(=O)oc2c1 | 19.5% (inactive) | – |
| CN(C)S(=O)(=O)c1ccc(N2CCCC2)c(C(=O)Nc2nccs2)c1 | – | 1910 nM |
| Cc1cc(C)nc(/N=C(\N)Nc2ccc(OCc3ccccc3)cc2)n1 | -50% (inactive) | – |
| COc1ccccc1CSc1nnc(-c2ccccc2)o1 | -67.6% (inactive) | – |
| Cc1csc(NC(=O)c2cc(S(=O)(=O)N(C)C)ccc2N2CCCC2)n1 | – | 575 nM |
| Cc1ccc(Oc2ccc(S(=O)(=O)N3CCOCC3)cc2C(N)=O)c(-n2nc3ccccc3n2)c1 | – | 3400 nM |
| CC(=O)N1CCC(=O)c2cc3ccccc3cc21 | – | 2420 nM |
| COc1ccc(NC(=O)C(=O)c2cn(CC(=O)N3CCCC3)c3ccccc23)cc1 | – | 62.1 nM |
| COc1ccccc1NC(=O)c1cc(S(=O)(=O)N(C)C)ccc1N1CCCC1 | 30.1% (inactive) | – |
| Cc1cnc(NC(=O)c2cc(S(=O)(=O)N(C)C)ccc2N2CCCCC2)s1 | – | 13700 nM |
| Cc1cccc(C)c1OCCNC(=O)C(=O)NCc1ccco1 | – | 3620 nM |

| Compound | activation (reporter increase) [1] | AC40 [2] |
| --- | --- | --- |
| CCCCOc1ccccc1C1CC(=O)NC2=C1C(=O)CCC2 (configuration not stated) | – | 948 nM |
| COc1ccc2sc(NC(=O)c3cc(S(=O)(=O)N(C)C)ccc3N3CCCC3)nc2c1 | 29.4% (inactive) | – |
| Cc1ccc(/C=N/NC(=O)C2COc3ccccc3O2)s1 (configuration not stated) | – | 1210 nM |
| CCOc1ccc(S(=O)(=O)NCc2ccccn2)cc1NC(=O)c1ccccc1F | – | 1370 nM |
| Nc1nc(=S)c2ncn([C@@H]3O[C@H](CO)[C@@H](O)[C@H]3O)c2[nH]1 | – | 771 nM |
| CN(C)S(=O)(=O)c1ccc(N2CCCC2)c(C(=O)Nc2ccccc2F)c1 | -4.62% (inactive) | – |
| CCN(CC)c1ccc(S(=O)(=O)N(C)C)cc1C(=O)Nc1ncc(C)s1 | – | 3210 nM |
| CCN(CC)CCCNc1nc2cc(OC)c(OC)cc2c2nc(-c3ccccc3)nn12 | – | 1660 nM |
| CCn1c2ccccc2c2cc(NC(=O)c3cc(OC)c(OC)c(OC)c3)ccc21 | – | 41.9 nM |
| CC(=O)N[C@H]1[C@@H](O[C@@H]2OC(C[C@@H](O)C3O[C@@H](n4ccc(=O)[nH]c4=O)[C@H](O)[C@@H]3O)[C@H](O)[C@H](O)[C@H]2NC(=O)/C=C/CCCCCCCCCCC(C)C)O[C@H](CO)[C@@H](O)[C@@H]1O (some centres not stated) | – | 278 nM |
| CCCOC(=O)c1[nH]c2c(c1C)C(=O)CC(c1cccs1)C2 (configuration not stated) | – | 1500 nM |
| COc1cc(Nc2c3c(nc4ccccc24)CCCC3)cc(OC)c1OC | – | 3590 nM |
| O=C(Cc1ccccc1)c1nnc(-c2ccccc2)o1 | -94.1% (inactive) | – |
| O=C1CCN(Cc2ccccc2)c2cc3ccccc3cc21 | 30.6% (inactive) | – |
| CCOc1ccc(NC(=O)c2cc(OC)nc3ccccc23)cc1 | – | 410 nM |
| CC(=O)c1cccc(NC(=O)CSc2ncc(C(=O)Nc3ccccc3)c(=O)n2C)c1 | – | 6870 nM |
| CN(C)S(=O)(=O)c1ccc(N2CCCC2)c(C(=O)Nc2cccc(F)c2)c1 | – | 2610 nM |
| CCCNS(=O)(=O)c1cccc(C(=O)OCc2cc(=O)oc3cc(OC)ccc23)c1 | -91.2% (inactive) | – |
| Cc1cnc(NC(=O)c2cc(S(=O)(=O)N(C)c3ccccc3)ccc2N2CCCC2)s1 | 10.9% (inactive) | – |
| COc1ccc(-c2nnc(SCc3ccccc3)o2)cc1 | -91.2% (inactive) | – |
| COC(=O)c1cn(C(=O)c2ccc(OC)cc2)c2ccccc12 | – | 1210 nM |
| CCOC(=O)c1ccc(Oc2cc(C)nc(SC)n2)cc1 | – | 3890 nM |

| Compound | activation (reporter increase) [1] | AC40 [2] |
| --- | --- | --- |
| CN(C)S(=O)(=O)c1ccc(N2CCCC2)c(C(=O)Nc2cccnc2)c1 | 48.4% (inactive) | – |
| COc1ccc(NC(=O)c2cc(S(=O)(=O)N(C)C)ccc2N2CCCC2)cc1 | – | 10300 nM |
| COc1ccccc1-c1nnc(SCc2ccccc2)o1 | -20.7% (inactive) | – |
| COc1cccc(N2CCN(C(=O)c3ccc(CS(=O)c4ccc(C)cc4)o3)CC2)c1 (configuration not stated) | – | 237 nM |
| Cc1cc(C)cc(C(=O)N2CC(=O)Nc3ccccc32)c1 | – | 12100 nM |
| Cc1ccc2cc(CN(CCCN(C)C)C(=O)Nc3ccccc3)c(=O)[nH]c2c1C | -11.1% (inactive) | – |
| Cc1cnc(NC(=O)c2cc(S(=O)(=O)N3CCNCC3)ccc2N2CCCC2)s1 | – | 9460 nM |
| CC(=O)c1ccc(Oc2cc(C)nc(-n3nc(C)cc3C)n2)cc1 | – | 645 nM |
| Cc1cc(=O)[nH]c(N/N=C/c2cc(C)n(CC(F)(F)F)c2C)n1 | -91.2% (inactive) | – |
| CCN(CC)S(=O)(=O)c1ccc(N2CCCC2)c(C(=O)Nc2ncc(C)s2)c1 | – | 12000 nM |
| Cc1cnc(NC(=O)c2cccc(S(=O)(=O)N(C)C)c2)s1 | -7.17% (inactive) | – |
| Cc1nc(NC(=O)c2cc(S(=O)(=O)N(C)C)ccc2N2CCCC2)n[nH]1 | 14.6% (inactive) | – |
| CN(C)S(=O)(=O)c1ccc(N2CCCC2)c(C(=O)N2CCOCC2)c1 | 3.4% (inactive) | – |
| CN(C)S(=O)(=O)c1ccc(N2CCCC2)c(C(=O)Nc2ccccc2Cl)c1 | 5.18% (inactive) | – |
| Cc1[nH][nH]c(=O)c1C(c1ccc(-c2ccc(Cl)c(Cl)c2)o1)c1c(C)[nH][nH]c1=O | – | 1020 nM |
| Cc1cnc(NC(=O)c2cc(S(=O)(=O)N(C)C)ccc2N(C)C)s1 | – | 5200 nM |
| O=C1CCNc2cc3ccccc3cc21 | -83.9% (inactive) | – |
| CN(C)S(=O)(=O)c1ccc(N2CCCC2)c(C(=O)Nc2ccc(Br)cc2)c1 | 32% (inactive) | – |
| Cc1cc(NC(=O)CSc2nc(-c3ccco3)cc(C(F)(F)F)n2)no1 | – | 434 nM |
| Cc1ccc(C(=O)c2cc([N+](=O)[O-])ccc2N2CCOCC2)cc1C | – | 1100 nM |
| Cc1ccc(CCC(=O)Nc2ncc(Cc3cc(Cl)ccc3Cl)s2)o1 | – | 205 nM |
| O=C(N/N=C/c1ccc(Cl)cc1)c1sccc1OCc1ccc(F)cc1 | – | 839 nM |

| Compound | activation (reporter increase) [1] | AC40 [2] |
| --- | --- | --- |
| Cc1cnc(NC(=O)c2cc(S(=O)(=O)N3CCCC3)ccc2N2CCCC2)s1 | – | 934 nM |
| Cc1cnc(NC(=O)c2cc(S(=O)(=O)N(C)C)ccc2C2CCCC2)s1 | – | 2210 nM |
| COc1cc(C(=O)NCCOc2cc(C)cc(C)c2)cc(OC)c1OC | – | 1850 nM |
| CN(C)S(=O)(=O)c1ccc(N2CCCC2)c(C(=O)Nc2ccccc2)c1 | – | 1080 nM |
| Cc1ccc2cc(CN(CCCN(C)C)C(=O)NCc3ccccc3)c(=O)[nH]c2c1C | – | 2680 nM |
| COc1cc(-c2nnc(SCC3(c4ccc(Br)cc4)OCCO3)o2)cc(OC)c1OC | – | 1340 nM |
| COc1ccccc1OCC(=O)NNC(=O)c1ccoc1C | – | 633 nM |
| Cc1ccc(NC(=O)c2cc(S(=O)(=O)N(C)C)ccc2N2CCCC2)cc1 | – | 1240 nM |
| Cc1cnc(NC(=O)c2cc(S(=O)(=O)N(CC(C)C)CC(C)C)ccc2N2CCCC2)s1 | -35.5% (inactive) | – |
| Cc1cnc(NC(=O)c2cc(S(=O)(=O)N(C)C)ccc2N2CCNCC2)s1 | -10.1% (inactive) | – |
| COc1cccc2sc(NC(=O)c3cc(S(=O)(=O)N(C)C)ccc3N3CCCC3)nc12 | 5.88% (inactive) | – |
| Cc1cnc(NC(=O)c2cc(S(=O)(=O)N3CCOCC3)ccc2N2CCCC2)s1 | – | 307 nM |
| CN(C)CCCN(Cc1cc2ccccc2[nH]c1=O)C(=O)Nc1ccccc1 | -2.22% (inactive) | – |
| CN(C)S(=O)(=O)c1ccc(N2CCCC2)c(C(=O)Nc2nc3ccccc3s2)c1 | – | 467 nM |
| CN(C)S(=O)(=O)c1ccc(N2CCCC2)c(C(=O)NC2CCCCC2)c1 | -20% (inactive) | – |
| c1ccc(CSc2nnc(-c3ccccc3)o2)cc1 | -94.1% (inactive) | – |
| Cc1cnc(NC(=O)c2cc(S(=O)(=O)NCc3ccccc3)ccc2N2CCCC2)s1 | – | 3670 nM |
| COc1ccc(CSc2nnc(-c3ccccc3)o2)cc1 | -76.5% (inactive) | – |
| CCN(CC)CCC(=O)Nc1cccc2c1C(=O)c1ccccc1C2=O | – | 729 nM |
| Cc1nnc(NC(=O)c2cc(S(=O)(=O)N(C)C)ccc2N2CCCC2)s1 | – | 4570 nM |
| CCOC(=O)COc1cccc2c(=O)n(CC(=O)NCc3ccccc3)ccc12 | – | 121 nM |
